Key:
Assay type in all cases: cell-based, human
[1] = tested on: ex vivo model of inflamed skin (InflammaSkin); assay: Histological analysis of the InflammaSkin model after topical treatment
Procedure: (§1) Using a clamp, the skin biopsy is held flat, with the dermis on top. A needle with no dead volume is inserted into the biopsy from the side of the dermis using a 701N or 705N Hamilton syringe (for 8 mm or 15 mm diameter biopsies, respectively). 10 μL or 35 μL of the activation solution (50 ng/μL anti-CD3 antibody, 50 ng/μL anti-CD28 antibody, and 10 ng/mL IL-2) for biopsies of 8 or 15 mm diameter, respectively, are injected from the side of the biopsy to avoid damage to the epidermis.
(§2) In WILLIAM'S E synthetic culture medium, the following supplements are added: 10 ng/mL IL-1β, 50 ng/mL IL-23, and 10 ng/mL TGFbeta. The culture is carried out for 7 days in a CO2 incubator at 37° C. The culture medium containing the supplements is changed daily.
The skin biopsy treated according to steps a) and b) of the method of the invention is dehydrated by an alcohol bath, and then passed through a xylene bath. A first bath in paraffin allows to replace the water previously contained in the skin explant by paraffin.
Serial sections of a thickness varying from 4 to 5 μm are then made along the entire length of the paraffin block containing the sample.
(§3) In order to test the relevance of the model of inflamed skin obtained by the method of the invention, compounds known for their anti-inflammatory effect were tested. These are betamethasone di-propionate and the PDE4 inhibitor. […]

IFNγ = IFNγ secretion by the InflammaSkin ex vivo model of inflamed skin, ELISA of culture media
Procedure: as §1, §2
(§4) The cytokines IL-17A, IL-22, and IFNγ produced by the model were analyzed in the culture media by an ELISA assay using a specific detection kit from Meso Scale Discovery (U-PLEX TH17 Combo 2 Human Reference K15076K) and using a multiplex assay platform (MESO QuickPlex SQ 120).
as §3

TNFα = TNFα secretion by the InflammaSkin ex vivo model of inflamed skin
IL-17A = IL-17A secretion by the InflammaSkin ex vivo model of inflamed skin, ELISA of culture media
Procedure: as §1, §2, §4, §3

IL-22 [2] = assay: IL-22 secretion by the InflammaSkin ex vivo model of inflamed skin, ELISA of culture media
Procedure: as §1, §2, §4, §3

IL-22 [3] = assay: IL-22 secretion by the Hypo-InflammaSkin model
Procedure: as §4
(§5) In order to test the relevance of the model of inflamed skin obtained by the method of the invention (Hypo-InflammaSkin®), an antibody known for its anti-inflammatory effect was tested. This is the adalimumab anti-TNFα antibody. Biopsies of inflamed skin (Hypo-InflammaSkin®−I) with a thickness of 1 cm were obtained by the method of the invention. A subcutaneous injection (namely into the […]) of 50 nM adalimumab was performed at TO (prophylactic treatment, Hypo-InflammaSkin®−I+anti-TNFα−P) or after 3 days of ex vivo culture of the inflamed biopsy (therapeutic treatment, Hypo-InflammaSkin®−I+anti-TNFα−T). After 7 days of ex vivo culture, the culture media are taken, and skin biopsies are fixed in a 10% formalin solution and then embedded in paraffin blocks. Serial sections of a constant thickness of 5 μm of the biopsies are made. The morphological appearance of the skin biopsies is studied under optical microscopy using hematoxylin and eosin staining. The presence of psoriasin (S110A7) is identified by fluorescence microscopy (Leica DM 5000 microscope) using an anti-S100A7 antibody coupled to a fluorochrome. […]

psoriasin (S100A7) = assay: Psoriasin detection by fluorescence microscopy in the Hypo-InflammaSkin model; settings: inflamed biopsy treated by subcutaneous injection of 50 nM, 7 days of ex vivo culture
Procedure: In order to test the relevance of the model of inflamed skin obtained by the method of the invention (Hypo-InflammaSkin®), an antibody known for its anti-inflammatory effect was tested. This is the adalimumab anti-TNFα antibody. Biopsies of inflamed skin (Hypo-InflammaSkin®−I) with a thickness of 1 cm were obtained by the method of the invention. A subcutaneous injection (namely into the […]) of 50 nM adalimumab was performed at TO (prophylactic treatment, Hypo-InflammaSkin®−I+anti-TNFα−P) or after 3 days of ex vivo culture of the inflamed biopsy (therapeutic treatment, Hypo-InflammaSkin®−I+anti-TNFα−T). After 7 days of ex vivo culture, the culture media are taken, and skin biopsies are fixed in a 10% formalin solution and then embedded in paraffin blocks. Serial sections of a constant thickness of 5 μm of the biopsies are made. The morphological appearance of the skin biopsies is studied under optical microscopy using hematoxylin and eosin staining. The presence of psoriasin (S110A7) is identified by fluorescence microscopy (Leica DM 5000 microscope) using an anti-S100A7 antibody coupled to a fluorochrome. The cell nuclei are marked with DAPI. Biopsies of non-inflamed skin (HypoSkin®−biopsies including the epidermis, dermis, and hypodermis) are used for control.

[4] = tested on: ex vivo model of inflamed skin (Hypo-InflammaSkin); assay: Histology analysis (hematoxylin and eosin) of the Hypo-InflammaSkin model after subcutaneous injection
Procedure: In a second embodiment, the hypodermis is preserved. The biopsies (epidermis, dermis, and hypodermis), the thickness of which is about 1 cm, are then cut out using a metal punch. This second embodiment is for testing anti-inflammatory compounds by subcutaneous injection.
as §5

Molecule	histological abnormalities in the epidermis ([1]; after 7 days of culture (FIG. 5 legend))	integrity and structure of the skin, particularly the epidermis, and viability of epidermal cells ([1]; prophylactic treatment, compared to placebo controls (FIG. 5))	IFNγ secretion (IFNγ; prophylactic treatment, topical 10 μL daily until 7th day of culture, compared to placebo control (FIG. 8A))	IFNγ secretion (IFNγ; therapeutic treatment, topical from 3 days of culture, daily until 7th day (FIG. 8B))	TNFα secretion (TNFα; prophylactic treatment, topical 10 μL daily until 7th day of culture, compared to placebo control (FIG. 9A))	TNFα secretion (TNFα; therapeutic treatment, topical from 3 days of culture, daily until 7th day (FIG. 9B))	IL-17A secretion (IL-17A; prophylactic treatment, topical 10 μL daily until 7th day of culture, compared to placebo control (FIG. 6A))	IL-17A secretion (IL-17A; therapeutic treatment, topical from 3 days of culture, daily until 7th day (FIG. 6B))	IL-22 secretion (IL-22 [2]; prophylactic treatment, topical 10 μL daily until 7th day of culture, compared to placebo control (FIG. 7A))	IL-22 secretion (IL-22 [2]; therapeutic treatment, topical from 3 days of culture, daily until 7th day (FIG. 7B))	IL-22 secretion (IL-22 [3]; prophylactic treatment, subcutaneous injection of 50 nM at T0, compared to untreated inflamed biopsy (FIG. 14))	IL-22 secretion (IL-22 [3]; therapeutic treatment, subcutaneous injection of 50 nM after 3 days of culture, compared to untreated inflamed biopsy (FIG. 14))	presence of psoriasin (psoriasin (S100A7))	integrity and structure of the skin, more particularly the epidermis, and epidermal cell viability ([4]; prophylactic treatment, subcutaneous injection of 50 nM at T0, 7 days of ex vivo culture (FIG. 13))	integrity and structure of the skin, more particularly the epidermis, and epidermal cell viability ([4]; therapeutic treatment, subcutaneous injection of 50 nM after 3 days of culture, 7 days of ex vivo culture (FIG. 13))
CCC(=O)OCC(=O)[C@@]1(OC(=O)CC)[C@@H](C)C[C@H]2[C@@H]3CCC4=CC(=O)C=C[C@]4(C)[C@@]3(F)[C@@H](O)C[C@@]21C [betamethasone di-propionate]	total absence of histological abnormalities in the epidermis	preserved	strongly inhibited	inhibits IFNγ secretion	strongly inhibited	strongly inhibited	strongly inhibited	inhibits IL-17A secretion	strongly inhibited	inhibits IL-22 secretion					
adalimumab											strongly inhibited	strongly inhibited	almost undetectable	preserved	preserved

From patent US12071648B2, “Ex vivo model of inflamed human skin and uses thereof for screening anti-inflammatory compounds” (GENOSKIN, priority 2017, dated 2024)
